In patent US10392366B2, “Azetidine compounds as GPR119 modulators for the treatment of diabetes, obesity, dyslipidemia and related disorders” (SANOFI, priority 2017, dated 2019):

These molecules were tested against T1, human GPR119 (Homo sapiens, UniProt Q8TDV5) (assay: Functional cellular assay measuring GPR119-mediated cAMP release (HTRF) in HEK-293 cells stably expressing recombinant GPR119). Conditions: cell line expressing human GPR119, 30 minutes at room temperature.
T1 construct: expressed in transfected cells
T1 sequence (Q8TDV5 1-335): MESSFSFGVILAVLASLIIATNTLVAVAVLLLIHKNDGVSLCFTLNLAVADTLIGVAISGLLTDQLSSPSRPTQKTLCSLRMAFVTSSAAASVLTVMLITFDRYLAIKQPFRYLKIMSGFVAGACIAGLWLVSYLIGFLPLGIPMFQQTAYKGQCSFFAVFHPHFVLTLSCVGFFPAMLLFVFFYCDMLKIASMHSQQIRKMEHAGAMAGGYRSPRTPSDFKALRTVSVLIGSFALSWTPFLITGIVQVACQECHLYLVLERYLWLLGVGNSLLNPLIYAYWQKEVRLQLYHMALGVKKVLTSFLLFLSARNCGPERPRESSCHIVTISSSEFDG
Type: cell-based
Experimental: Functional Cellular Assays Measuring GPR119-mediated cAMP Release
Compounds of the present disclosure, which are agonists of GPR119, were characterized by functional assays measuring the cAMP response of HEK-293 cell lines stably expressing recombinant GPR119 from man, mouse or rat, or by using the hamster cell line HIT-T15 expressing GPR119 endogenously. The cAMP content was determined using a kit based on homogenous time-resolved fluorescence (HTRF) from Cisbio Corp. (cat. no. 62AM4PEC). For preparation, cells were split into T175 culture flasks and grown to near confluency in medium (DMEM/10% FCS for HEK-293 cells, and F-12K medium/10% horse serum/2.5% FCS for HIT-T15 cells, respectively). Medium was then removed and cells washed with PBS lacking calcium and magnesium ions, followed by proteinase treatment with accutase (Sigma-Aldrich, cat. no. A6964). Detached cells were washed and resuspended in assay buffer (1×HBSS; 20 mM HEPES, 0.1% BSA, 2 mM IBMX) and cellular density determined. They were then diluted to 400000 cells/mL and 25 μL-aliquots dispensed to the wells of 96-well plates. For measurement, 25 μL of test compound in assay buffer was added and incubated for 30 minutes at room temperature. After addition of HTRF reagents diluted in lysis buffer, the plates were incubated for 1 hour, followed by measuring the fluorescence ratio at 665 vs. 620 nm. Potency of the agonists was quantified by determining the concentrations that caused 50% of the maximal response/activation (EC50). See Table 6 for exemplary data obtained using the cell line expressing human GPR119.

Compound	EC50 [nM]
O=C(C1CN(c2ncc(N3CC[C@@H](Oc4ccc(OCC(F)(F)F)nc4)C3=O)cn2)C1)N1CCCC1 [Compound 4-15]	84
CNCCOC(=O)C1CN(c2ncc(N3CC[C@@H](Oc4ccc(OCC(F)(F)F)nc4)C3=O)cn2)C1 [Compound 4-16]	213
CN(CCO)C(=O)C1CN(c2ncc(N3CC[C@@H](Oc4ccc(OCC(F)(F)F)nc4)C3=O)cn2)C1 [Compound 4-17]	261
CN(CC(N)=O)C(=O)C1CN(c2ncc(N3CC[C@@H](Oc4ccc(OCC(F)(F)F)nc4)C3=O)cn2)C1 [Compound 4-18]	398
CN(C(=O)C1CN(c2ncc(N3CC[C@@H](Oc4ccc(OCC(F)(F)F)nc4)C3=O)cn2)C1)C1CC1 [Compound 4-19]	85
CC(C)N(C)C(=O)C1CN(c2ncc(N3CC[C@@H](Oc4ccc(OCC(F)(F)F)nc4)C3=O)cn2)C1 [Compound 4-20]	82
NC(=O)C1CN(c2ncc(N3CC[C@@H](Oc4ccc(OCC(F)(F)F)nc4)C3=O)cn2)C1 [Compound 4-21]	245
O=C(C1CN(c2ncc(N3CC[C@@H](Oc4ccc(OCC(F)(F)F)nc4)C3=O)cn2)C1)N1CCC1 [Compound 4-22]	116
COCC(=O)NC1CN(c2ncc(N3CC[C@@H](Oc4ccc(OCC(F)(F)F)nc4)C3=O)cn2)C1 [Compound 4-23]	956
CC(=O)NC1CN(c2ncc(N3CC[C@@H](Oc4ccc(OCC(F)(F)F)nc4)C3=O)cn2)C1 [Compound 4-24]	1350
CNC(=O)C1CN(c2ccc(N3CC[C@@H](Oc4ccc(OCC(F)(F)F)nc4)C3=O)cn2)C1 [Compound 4-25]	88
NC(=O)C1CN(c2ccc(N3CC[C@@H](Oc4ccc(OCC(F)(F)F)nc4)C3=O)cn2)C1 [Compound 4-26]	101
[2H]C([2H])([2H])N(C(=O)C1CN(c2ncc(N3CC[C@@H](Oc4ccc(OCC(F)(F)F)nc4)C3=O)cn2)C1)C([2H])([2H])[2H] [Compound 4-27]	122

Second part, the molecule after the results:

EC50 [nM]	Compound
458	NC(=O)OC1CN(c2ncc(N3CC[C@@H](Oc4ccc(OCC(F)(F)F)nc4)C3=O)cn2)C1 [Compound 5-01]
1030	CN(C)C(=O)OC1CN(c2ncc(N3CC[C@@H](Oc4ccc(OCC(F)(F)F)nc4)C3=O)cn2)C1 [Compound 5-02]
663	O=C1[C@H](Oc2ccc(OCC(F)(F)F)nc2)CCN1c1cnc(N2CC(n3cn[nH]c3=O)C2)nc1 [Compound 5-03]
146	O=C(NCO)C1CN(c2ccc(N3CC[C@@H](Oc4ccc(OCC(F)(F)F)nc4)C3=O)cn2)C1 [Compound 5-04]
67	CN(CO)C(=O)C1CN(c2ccc(N3CC[C@@H](Oc4ccc(OCC(F)(F)F)nc4)C3=O)cn2)C1 [Compound 5-05]
